Series [1] relates to Epidermal growth factor receptor (Homo sapiens), P00533 [L858R]. In words: Inhibition of recombinant human EGFR L858R mutant (696 to end residues) assessed as residual activity at 1 uM using poly(Glu, Tyr) 4:1 as substrate at 40 mins in presence of [gamma-33ATP] by scintillation counting based radiometry assay relative to control.
Series [2] concerns Epidermal growth factor receptor (Homo sapiens), P00533 [L861Q]. In words: Inhibition of recombinant human EGFR L861Q mutant (696 to end residues) assessed as residual activity at 1 uM using poly(Glu, Tyr) 4:1 as substrate at 40 mins in presence of [gamma-33ATP] by scintillation counting based radiometry assay relative to control.
In series [3] the test system is Mitogen-activated protein kinase kinase kinase 10 (MLK2). In words: Inhibition of recombinant human MLK2 (1 to 499 residues) assessed as residual activity at 1 uM using myelin basic protein as substrate incubated for 40 mins in presence of [gamma-33ATP by scintillation counting based radiometry assay relative to control.
Series [4] has as its target Serine/threonine-protein kinase 32C (Homo sapiens) (UniProt Q86UX6). Put plainly: Inhibition of recombinant full-length human STK32C at 1 uM assessed as residual activity at 1 uM using casein as substrate measured after 120 mins in presence of [gamma33P]ATP by scintillation counting method relative to control.
The target of series [5] is Serine/threonine-protein kinase PAK 4 (Homo sapiens) (UniProt O96013). In words: Inhibition of recombinant human PAK4 (295 to end residues) assessed as residual activity at 1 uM using myelin basic protein as substrate measured after 40 mins in presence of [gamma33P]ATP by scintillation counting method relative to control.
Serine/threonine-protein kinase PAK 4 (Homo sapiens), sequence (O96013 whole entry, looked up): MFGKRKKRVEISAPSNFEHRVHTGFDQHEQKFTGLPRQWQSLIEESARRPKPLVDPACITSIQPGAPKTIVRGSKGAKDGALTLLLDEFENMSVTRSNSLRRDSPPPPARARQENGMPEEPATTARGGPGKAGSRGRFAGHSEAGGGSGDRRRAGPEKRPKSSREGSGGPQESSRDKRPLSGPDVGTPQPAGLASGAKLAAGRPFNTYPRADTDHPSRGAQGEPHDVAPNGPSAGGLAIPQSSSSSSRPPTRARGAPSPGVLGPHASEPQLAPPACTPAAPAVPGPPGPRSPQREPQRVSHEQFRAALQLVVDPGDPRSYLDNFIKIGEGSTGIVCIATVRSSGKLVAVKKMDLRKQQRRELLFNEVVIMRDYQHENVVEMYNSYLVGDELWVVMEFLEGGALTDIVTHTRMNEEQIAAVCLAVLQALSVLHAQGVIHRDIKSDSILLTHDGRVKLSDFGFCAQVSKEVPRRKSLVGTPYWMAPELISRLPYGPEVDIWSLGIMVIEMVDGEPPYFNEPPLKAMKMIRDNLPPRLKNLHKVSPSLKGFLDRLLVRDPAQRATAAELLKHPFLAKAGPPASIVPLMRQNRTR
The target of series [6] is Non-receptor tyrosine-protein kinase TYK2 (Homo sapiens) (UniProt P29597). In words: Inhibition of human TYK2 (875 to end residues) assessed as residual activity at 1 uM using GGMEDIYFEFMGGKKK as substrate measured after 40 mins in presence of [gamma33P]ATP by scintillation counting method relative to control.
Non-receptor tyrosine-protein kinase TYK2 (Homo sapiens), sequence (P29597 whole entry): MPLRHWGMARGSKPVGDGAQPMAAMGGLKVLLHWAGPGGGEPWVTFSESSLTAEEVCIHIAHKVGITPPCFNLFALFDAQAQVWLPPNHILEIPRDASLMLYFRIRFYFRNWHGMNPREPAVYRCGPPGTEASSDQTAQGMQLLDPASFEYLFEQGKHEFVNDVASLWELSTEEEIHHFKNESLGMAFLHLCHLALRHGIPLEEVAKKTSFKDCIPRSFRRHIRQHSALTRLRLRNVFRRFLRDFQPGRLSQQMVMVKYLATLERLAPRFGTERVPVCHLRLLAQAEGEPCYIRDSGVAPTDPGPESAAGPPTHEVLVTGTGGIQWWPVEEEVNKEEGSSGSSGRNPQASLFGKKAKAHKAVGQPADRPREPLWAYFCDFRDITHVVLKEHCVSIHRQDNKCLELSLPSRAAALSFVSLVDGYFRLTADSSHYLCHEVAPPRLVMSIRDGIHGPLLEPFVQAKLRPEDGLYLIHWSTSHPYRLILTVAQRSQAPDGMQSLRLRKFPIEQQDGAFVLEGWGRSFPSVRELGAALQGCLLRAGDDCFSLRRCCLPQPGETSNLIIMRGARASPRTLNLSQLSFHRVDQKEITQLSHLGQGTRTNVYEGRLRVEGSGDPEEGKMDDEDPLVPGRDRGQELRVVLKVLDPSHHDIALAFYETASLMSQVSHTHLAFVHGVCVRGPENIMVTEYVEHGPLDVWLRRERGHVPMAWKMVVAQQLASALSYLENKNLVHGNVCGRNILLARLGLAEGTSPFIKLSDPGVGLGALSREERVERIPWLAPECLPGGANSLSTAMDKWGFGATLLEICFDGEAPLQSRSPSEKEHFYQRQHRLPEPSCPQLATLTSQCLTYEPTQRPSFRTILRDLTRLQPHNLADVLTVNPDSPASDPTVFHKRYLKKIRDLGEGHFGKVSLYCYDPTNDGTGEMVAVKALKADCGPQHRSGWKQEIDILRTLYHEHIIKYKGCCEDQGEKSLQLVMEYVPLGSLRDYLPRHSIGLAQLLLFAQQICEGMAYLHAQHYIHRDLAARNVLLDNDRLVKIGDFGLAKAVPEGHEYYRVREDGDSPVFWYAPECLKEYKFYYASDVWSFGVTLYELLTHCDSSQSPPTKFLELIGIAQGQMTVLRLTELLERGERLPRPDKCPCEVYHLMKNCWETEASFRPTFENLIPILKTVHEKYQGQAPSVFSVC
In series [7] the target is Serine/threonine-protein kinase LATS2 (Homo sapiens) (UniProt Q9NRM7). Put plainly: Inhibition of human LATS2 assessed as residual activity at 1 uM by radiometric assay relative to control.
Serine/threonine-protein kinase LATS2 (Homo sapiens), sequence (Q9NRM7 whole entry): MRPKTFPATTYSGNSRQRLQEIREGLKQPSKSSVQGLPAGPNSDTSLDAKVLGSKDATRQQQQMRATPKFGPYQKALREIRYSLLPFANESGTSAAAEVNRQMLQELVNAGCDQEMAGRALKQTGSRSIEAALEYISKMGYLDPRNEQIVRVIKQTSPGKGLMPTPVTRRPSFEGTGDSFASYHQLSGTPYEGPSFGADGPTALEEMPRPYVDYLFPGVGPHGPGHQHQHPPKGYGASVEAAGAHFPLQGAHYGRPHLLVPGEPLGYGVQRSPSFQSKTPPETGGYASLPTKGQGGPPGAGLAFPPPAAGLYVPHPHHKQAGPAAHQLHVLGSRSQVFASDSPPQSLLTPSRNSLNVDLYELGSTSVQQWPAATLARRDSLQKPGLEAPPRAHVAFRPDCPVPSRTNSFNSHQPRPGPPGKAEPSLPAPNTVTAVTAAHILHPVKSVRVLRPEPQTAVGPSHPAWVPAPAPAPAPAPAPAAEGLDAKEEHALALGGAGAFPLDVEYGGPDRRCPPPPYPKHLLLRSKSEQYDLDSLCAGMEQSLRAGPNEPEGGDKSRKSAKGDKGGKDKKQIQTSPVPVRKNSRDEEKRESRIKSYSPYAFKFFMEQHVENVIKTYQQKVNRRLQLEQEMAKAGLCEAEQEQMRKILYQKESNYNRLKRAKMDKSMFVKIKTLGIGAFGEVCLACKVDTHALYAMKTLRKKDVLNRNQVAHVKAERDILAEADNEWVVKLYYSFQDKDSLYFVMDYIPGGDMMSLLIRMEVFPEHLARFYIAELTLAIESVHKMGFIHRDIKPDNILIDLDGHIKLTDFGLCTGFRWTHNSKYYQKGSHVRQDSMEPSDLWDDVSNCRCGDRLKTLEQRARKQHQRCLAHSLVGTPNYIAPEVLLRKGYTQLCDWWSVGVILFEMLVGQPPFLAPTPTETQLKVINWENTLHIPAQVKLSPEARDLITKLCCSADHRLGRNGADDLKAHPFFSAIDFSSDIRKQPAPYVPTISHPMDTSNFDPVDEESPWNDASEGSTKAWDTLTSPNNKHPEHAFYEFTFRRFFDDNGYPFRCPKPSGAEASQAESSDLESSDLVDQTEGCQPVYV
Series [8] addresses Cyclin-Y/Cyclin-dependent kinase 16 (Homo sapiens) (UniProt Q00536+Q8ND76). In words: Inhibition of recombinant full length human CDK16/cyclinY assessed as residual activity at 1 uM using PKSPKARKKL as substrate incubated for 120 mins in presence of [gamma-33ATP] by scintillation counting based radiometry assay relative to control. It counts as protein-complex assay.
The test system of series [9] is HL-60. Put plainly: Induction of monocytic differentiation in human HL60 cells assessed as increase in CD11b-APC-Cy7 positive cells at 30 uM after 6 days by flow cytometry analysis. It counts as functional, cell-based. (In general: Flow cytometry measures light scatter and fluorescence of single cells or particles in a stream.)
Series [10] has as its target T1, Glycogen synthase kinase-3 alpha (Homo sapiens, UniProt P49840). In words: Inhibition of GSK-3alpha phosphorylation at Y279 residue in human NB4 cells after 24 hrs by Western blot analysis. It counts as cell-based.
A short description of series [11]: Activation of wnt/beta-catenin signalling pathway in human NB4 cells assessed as stabilization of beta-catenin at 1 to 30 uM after 24 hrs by Western blot analysis. It counts as cell-based. For orientation: Immunoblotting shows a protein as a band on a membrane.
Series [12] deals with HL-60. In words: Induction of monocytic differentiation in human HL60 cells assessed as increase in CD14-FITC positive cells at 30 uM after 6 days by flow cytometry analysis. It counts as functional, cell-based.
Series [13] concerns HL-60. In words: Antiproliferative activity against human HL60 cells assessed as reduction in viability after 3 days by SRB assay. It counts as functional, cell-based. In general terms: The SRB assay estimates cell density from bound dye.
Series [14] has as its target STE20/SPS1-related proline-alanine-rich protein kinase (Homo sapiens) (UniProt Q9UEW8). Put plainly: Inhibition of recombinant human STK39 assessed as residual activity at 1 uM in presence of [gamma33P]ATP by scintillation counting based radiometry assay relative to control.
Series [15] concerns the target BMP-2-inducible protein kinase (Homo sapiens) (UniProt Q9NSY1). In words: Inhibition of recombinant human BIKe assessed as residual activity at 1 uM using peptide as substrate incubated for 120 mins in presence of [gamma-33ATP] by scintillation counting based radiometry assay relative to control.
The test system of series [16] is NB-4. Put plainly: Induction of cell differentiation in human NB4 cells assessed as increase in CD11c-APC positive cells after 6 days by flow cytometry analysis. It counts as functional, cell-based.
The subject of series [17] is HL-60. Put plainly: Induction of cell differentiation in human HL60 cells assessed as increase in CD11b-APC-Cy7 positive cells after 6 days by flow cytometry analysis. It counts as functional, cell-based.
Series [18] addresses Mitogen-activated protein kinase kinase kinase 21 (Homo sapiens) (UniProt Q5TCX8). In words: Inhibition of recombinant human MLK4 assessed as residual activity at 1 uM using by radiometry assay relative to control.
The subject of series [19] is Serine/threonine-protein kinase 38 (NDR1). Put plainly: Inhibition of recombinant human NDR1 assessed as residual activity at 1 uM relative to control.
The test system of series [20] is NB-4. In words: Induction of monocytic differentiation in human NB4 cells assessed as increase in CD14 positive cells at 30 uM after 6 days by FITC staining based flow cytometry analysis. It counts as functional, cell-based.
For a further series, the species on record is Homo sapiens. In words: Selectivity index, ratio of IC50 for inhibition of human GSK-3beta H350L mutant (2 to end residues) to IC50 for inhibition of human GSK-3alpha S449A mutant (2 to end residues).
The test system of series [21] is HL-60. In words: Inhibition of colony formation in human HL60 cells preincubated for 72 hrs followed by compound washout and measured after 7 to 10 days. It counts as functional, cell-based.
Series [22] deals with NB-4. In words: Effect on total beta-catenin level in human NB4 cells at 1 to 30 uM after 24 hrs by Western blot analysis. It counts as ADME, cell-based. To be noted: nb-4, 24 h.
Series [23] has as its system HL-60. In words: Effect on total beta-catenin level in human HL60 cells at 1 to 30 uM after 24 hrs by Western blot analysis. It counts as ADME, cell-based. To be noted: hl-60, 24 h.
In series [24] the target is T1, Glycogen synthase kinase-3 alpha. In words: Inhibition of GSK-3alpha phosphorylation at Y279 residue in human HL60 cells after 24 hrs by Western blot analysis. It counts as cell-based.
The test system of series [25] is NB-4. In words: Induction of cell differentiation in human NB4 cells assessed as increase in CD14-FITC positive cells after 6 days by flow cytometry analysis. In kind it is functional, cell-based.
Series [26] concerns HL-60. Put plainly: Induction of cell death in human HL60 cells at 10 to 30 uM after 6 days by trypan blue assay. It counts as cell-based. To be noted: hl-60, 144 h.
The test system of series [27] is NB-4. Put plainly: Inhibition of colony formation in human NB4 cells preincubated for 72 hrs followed by compound washout and measured after 7 to 10 days. It counts as functional, cell-based.
Series [28] has as its system NB-4. Put plainly: Induction of cell differentiation in human NB4 cells assessed as increase in CD11b-APC-Cy7 positive cells after 6 days by flow cytometry analysis. In kind it is functional, cell-based.
In series [29] the test system is NB-4. Put plainly: Induction of monocytic differentiation in human NB4 cells assessed as increase in CD11b-APC-Cy7 positive cells at 30 uM after 6 days by flow cytometry analysis. It counts as functional, cell-based.
The test system of series [30] is NB-4. In words: Antiproliferative activity against human NB4 cells assessed as reduction in viability after 3 days by SRB assay. In kind it is functional, cell-based.
For series [31], the target named is Serine/threonine-protein kinase DCLK1 (Homo sapiens) (UniProt O15075). In words: Inhibition of recombinant human DCAMKL1 assessed as residual activity at 1 uM radiometric assay relative to control.

Calls of active or inactive are those of the source. No cut-off for these calls is given here.

Serine/threonine-protein kinase 32C (Homo sapiens), sequence (Q86UX6 whole entry): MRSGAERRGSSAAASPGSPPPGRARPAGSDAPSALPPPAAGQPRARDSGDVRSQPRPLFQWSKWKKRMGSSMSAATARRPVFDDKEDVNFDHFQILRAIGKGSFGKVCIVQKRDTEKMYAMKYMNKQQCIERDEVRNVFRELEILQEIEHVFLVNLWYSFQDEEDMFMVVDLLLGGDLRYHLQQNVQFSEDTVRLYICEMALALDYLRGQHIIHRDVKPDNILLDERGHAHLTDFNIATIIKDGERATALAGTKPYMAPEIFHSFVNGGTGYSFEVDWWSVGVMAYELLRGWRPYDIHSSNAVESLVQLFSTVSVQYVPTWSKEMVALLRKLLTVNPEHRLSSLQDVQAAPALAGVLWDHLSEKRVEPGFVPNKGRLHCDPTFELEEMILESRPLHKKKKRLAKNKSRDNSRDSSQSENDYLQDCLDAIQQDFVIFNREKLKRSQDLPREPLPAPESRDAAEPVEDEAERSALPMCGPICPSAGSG
T1 sequence (P49840 2-483 limits assumed): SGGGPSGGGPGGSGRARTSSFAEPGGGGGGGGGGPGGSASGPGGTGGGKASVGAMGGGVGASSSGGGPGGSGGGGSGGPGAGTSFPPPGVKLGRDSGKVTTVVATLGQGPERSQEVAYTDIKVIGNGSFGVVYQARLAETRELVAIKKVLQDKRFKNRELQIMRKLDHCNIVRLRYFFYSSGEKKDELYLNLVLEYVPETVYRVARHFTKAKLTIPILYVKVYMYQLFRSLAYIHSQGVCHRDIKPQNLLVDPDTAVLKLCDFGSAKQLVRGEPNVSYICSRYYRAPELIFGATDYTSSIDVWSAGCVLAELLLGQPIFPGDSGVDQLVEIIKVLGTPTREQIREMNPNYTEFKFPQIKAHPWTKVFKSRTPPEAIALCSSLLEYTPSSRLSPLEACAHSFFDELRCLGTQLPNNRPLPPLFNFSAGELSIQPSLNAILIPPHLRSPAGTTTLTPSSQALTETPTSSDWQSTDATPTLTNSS
Mitogen-activated protein kinase kinase kinase 21 (Homo sapiens), sequence (Q5TCX8 whole entry): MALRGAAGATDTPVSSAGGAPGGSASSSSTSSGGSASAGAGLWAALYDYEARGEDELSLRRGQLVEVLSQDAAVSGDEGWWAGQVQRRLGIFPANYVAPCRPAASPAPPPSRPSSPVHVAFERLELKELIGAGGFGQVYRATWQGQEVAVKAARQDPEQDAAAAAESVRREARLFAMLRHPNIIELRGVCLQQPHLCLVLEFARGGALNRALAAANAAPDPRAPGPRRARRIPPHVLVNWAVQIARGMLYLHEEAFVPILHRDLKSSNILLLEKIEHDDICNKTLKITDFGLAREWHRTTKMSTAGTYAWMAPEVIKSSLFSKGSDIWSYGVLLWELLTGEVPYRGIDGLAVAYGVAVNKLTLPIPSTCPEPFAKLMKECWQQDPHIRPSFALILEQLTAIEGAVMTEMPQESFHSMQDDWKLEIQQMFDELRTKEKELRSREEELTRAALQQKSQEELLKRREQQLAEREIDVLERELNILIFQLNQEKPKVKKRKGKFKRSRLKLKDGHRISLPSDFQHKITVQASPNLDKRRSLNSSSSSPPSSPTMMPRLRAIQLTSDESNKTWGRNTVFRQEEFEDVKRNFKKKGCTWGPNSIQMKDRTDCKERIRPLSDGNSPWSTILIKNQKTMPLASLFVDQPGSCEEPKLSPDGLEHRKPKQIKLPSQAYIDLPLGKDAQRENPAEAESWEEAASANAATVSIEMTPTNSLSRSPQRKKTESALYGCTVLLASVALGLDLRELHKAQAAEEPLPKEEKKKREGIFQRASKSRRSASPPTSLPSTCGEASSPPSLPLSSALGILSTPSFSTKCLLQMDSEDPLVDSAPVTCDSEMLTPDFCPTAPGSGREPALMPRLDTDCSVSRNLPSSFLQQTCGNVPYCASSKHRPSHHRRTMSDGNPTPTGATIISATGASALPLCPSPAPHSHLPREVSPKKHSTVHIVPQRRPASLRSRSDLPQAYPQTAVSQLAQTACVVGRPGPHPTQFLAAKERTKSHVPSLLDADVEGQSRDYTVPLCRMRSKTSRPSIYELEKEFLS

As for `N=C1NC(=O)/C(=C\c2ccc(-c3cccc([N+](=O)[O-])c3)o2)S1`, the Activity in series [1] is 76%; in [2], 85%; in series [3] it was 101%; in [4], 101%; in series [5], 92%; in [6], 107%.
For the compound `C=CCOC(=O)c1cc(-c2ccc(/C=C3/NC(=S)NC3=O)o2)ccc1Cl`, the Activity in [7] was 100%; in [8], 82%; in series [11], “Not Active”; in the series with HL-60 [13], “Dose-dependent effect”; in series [14], 103%; in series [15], 111%. For the same compound, the Activity result is “Dose-dependent effect” in the series on NB-4 [16]; “Dose-dependent effect” in the series on HL-60 [17]; 95% in series [18]; 99% in series [19]; 106% in series [1]; 106% in [2]. Also, the Activity result was “Non-Toxic” with NB-4 [22]; “Non-Toxic” with HL-60 [23]; 103% in [3]; “Dose-dependent effect” in the series with NB-4 [25]; “Non-Toxic” in the series on HL-60 [26]; 94% in series [4]. Further, the Activity entry was “Dose-dependent effect” in the series on NB-4 [28]; 101% in series [5]; 94% in [6]; “Dose-dependent effect” with NB-4 [30]; 85% in series [31]. Also, the outcome with HL-60 [9], in the series on HL-60 [12], in the series with NB-4 [20] and in the series with NB-4 [29] was Active. Also, the inhibition result (in series [10]; in the series on HL-60 [21]; in [24]; with NB-4 [27]) was “Dose-dependent effect” in each case. Besides, the Ratio IC50 in the series listed under Homo sapiens was 6.6.

The record behind these values is ChEMBL document CHEMBL4334438, “Discovery of novel glycogen synthase kinase-3α inhibitors: Structure-based virtual screening, preliminary SAR and biological evaluation for treatment of acute myeloid leukemia” (Eur J Med Chem, 2019).
